Measured values from US12459951B2, “Compounds that interact with RAS superfamily proteins for treatment of cancers, inflammatory diseases, rasopathies, and fibrotic disease” (SHY Therapeutics, LLC, priority 2022, dated 2025).

Key:
Erk1/2 phosphorylation = test: Erk1/2 Phosphorylation Assay (western blot), Panc-1; type: cell-based, human; settings: at 10 μM, * = activation
Outline: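 Phospho-Erk1/2 (Thr202/Tyr204) was detected by western blot in lysates of Panc-1 cells (KRas G12D). These had 6 h, 37° C exposure to 10 μM compound or a dilution series for IC50, in 0.3% DMSO. Cells were either starved overnight in 0.5% FBS with a 15-min 1.5 ng/ml EGF pulse, or kept unstimulated in 10% FBS.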

KRas G12D mutant = test: Ras GTP Binding Domain Inhibition Assay (Ras Superfamily Assay); settings: 20 μM compound; for KRas G12D mutant + SOS: % inh.: with SOS; for KRas G12D mutant: % inh.: without SOS
Outline: (§1)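 Binding of 100 nM fluorescent GTP (Cy3 or Cy5, 45 min, room temperature) was read after washes from plate-captured His-tagged protein. Beforehand, compounds at 20 μM or in dilution series for IC50 sat 3 h on the protein in Tris buffer pH 7.4 or 7.0 with 1% DMSO, Sos GEF optionally added for the last hour.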

KRas Q61H mutant = test: as above; settings: 20 μM compound; for KRas Q61H mutant + SOS: % inh.: with SOS; for KRas Q61H mutant: % inh.: without SOS
Outline: as §1

Rho-A = target: T1, Rho-A (Homo sapiens, UniProt P61586); test: as above; settings: read-out: Rho-A: % inh..
T1 construct: made in house
T1 sequence (P61586 whole entry): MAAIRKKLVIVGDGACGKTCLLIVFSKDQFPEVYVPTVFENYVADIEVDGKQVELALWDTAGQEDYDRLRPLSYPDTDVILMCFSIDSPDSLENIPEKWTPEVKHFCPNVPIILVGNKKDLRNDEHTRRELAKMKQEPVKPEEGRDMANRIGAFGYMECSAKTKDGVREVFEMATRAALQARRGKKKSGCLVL
Outline: as §1

KRas wild type = test: as above; settings: 20 μM compound; for KRas wild type + SOS: % inh.: with SOS; for KRas wild type: % inh.: without SOS
Outline: as §1

Rac-1 = target: T2, Rac-1 (Homo sapiens, UniProt P63000); test: as above; settings: read-out: Rac-1: % inh.
T2 construct: made in house
Outline: as §1

KRas G12C mutant = test: as above; settings: 20 μM compound; for KRas G12C mutant + SOS: % inh.: with SOS; for KRas G12C mutant: % inh.: without SOS
Outline: as §1

Structure (SMILES) | % inh of Erk1/2 phosphorylation in Panc-1 (Erk1/2 phosphorylation) | KRas G12D mutant + SOS: % inh. (KRas G12D mutant) | KRas G12D mutant: % inh. (KRas G12D mutant) | KRas Q61H mutant + SOS: % inh. (KRas Q61H mutant) | KRas Q61H mutant: % inh. (KRas Q61H mutant) | inhibition at 20 µM (Rho-A) [%] | KRas wild type + SOS: % inh. (KRas wild type) | KRas wild type: % inh. (KRas wild type) | inhibition at 20 µM (Rac-1) [%] | KRas G12C mutant + SOS: % inh. (KRas G12C mutant) | KRas G12C mutant: % inh. (KRas G12C mutant)
COc1cnc(Nc2nc(-c3nccn3C)nn3cc(-c4ccn(C(C)C)n4)c(C)c23)nc1 [Compound 56, 6-(1-Isopropyl-1H-pyrazol-3-yl)-N-(5-methoxypyrimidin-2-yl)-5-methyl-2-(1-methyl-1H-imidazol-2-yl)pyrrolo[2,1-f][1,2,4]triazin-4-amine] | C (50-84% inhibition) | B (B = 26-49% inhibition) | B (B = 26-49% inhibition) | D (D = 76-100% inhibition) | C (C = 50-75% inhibition) | 50 to 75 | 0 (0 = 0% inhibition) | B (B = 26-49% inhibition) | 50 to 75 | A (A = 1-25% inhibition) | C (C = 50-75% inhibition)
COCCNc1nc(-c2nccn2C)nn2cc(-c3cccc(OC)c3Cl)c(-c3ccccc3)c12 [Compound 29, 6-(2-Chloro-3-methoxyphenyl)-N-(2-methoxyethyl)-2-(1-methyl-1H-imidazol-2-yl)-5-phenylpyrrolo[2,1-f][1,2,4]triazin-4-amine] | D (85-100% inhibition) | A (A = 1-25% inhibition) | 0 (0 = 0% inhibition) | 0 (0 = 0% inhibition) | 0 (0 = 0% inhibition) | 1 to 25 | 0 (0 = 0% inhibition) | A (A = 1-25% inhibition) | 0 | A (A = 1-25% inhibition) | 0 (0 = 0% inhibition)
COc1cccc(-c2cn3nc(-c4nccn4C)nc(O)c3c2-c2ccccc2)c1Cl [Compound 28, 6-(2-Chloro-3-methoxyphenyl)-2-(1-methyl-1H-imidazol-2-yl)-5-phenylpyrrolo[2,1-f][1,2,4]triazin-4-ol] | 0 (0% inhibition) | A (A = 1-25% inhibition) | A (A = 1-25% inhibition) | A (A = 1-25% inhibition) | A (A = 1-25% inhibition) | 1 to 25 | A (A = 1-25% inhibition) | A (A = 1-25% inhibition) | 26 to 49 | A (A = 1-25% inhibition) | A (A = 1-25% inhibition)
Cc1c(-c2ccn(C(C)C)n2)cn2nc(-c3nccn3C)nc(Nc3nnc(C4CC4)o3)c12 [Compound 67, 5-Cyclopropyl-N-(6-(1-isopropyl-1H-pyrazol-3-yl)-5-methyl-2-(1-methyl-1H-imidazol-2-yl)pyrrolo[2,1-f][1,2,4]triazin-4-yl)-1,3,4-oxadiazol-2-amine] | D (85-100% inhibition) | C (C = 50-75% inhibition) | C (C = 50-75% inhibition) | C (C = 50-75% inhibition) | C (C = 50-75% inhibition) | 76 to 100 | C (C = 50-75% inhibition) | C (C = 50-75% inhibition) | 50 to 75 | B (B = 26-49% inhibition) | C (C = 50-75% inhibition)
COc1cncnc1Nc1nc(-c2nccn2C)nn2cc(-c3ccn(C(C)C)n3)c(C)c12 [Compound 73, 6-(1-Isopropyl-1H-pyrazol-3-yl)-N-(5-methoxypyrimidin-4-yl)-5-methyl-2-(1-methyl-1H-imidazol-2-yl)pyrrolo[2,1-f][1,2,4]triazin-4-amine] | D* (85-100% activation) | B (B = 26-49% inhibition) | C (C = 50-75% inhibition) | C (C = 50-75% inhibition) | C (C = 50-75% inhibition) | 76 to 100 | B (B = 26-49% inhibition) | C (C = 50-75% inhibition) | 50 to 75 | B (B = 26-49% inhibition) | B (B = 26-49% inhibition)
Cn1ccnc1-c1nc(OCCN2CCCC2)c2c(-c3ccccc3)ccn2n1 [Compound 41, 2-(1-Methyl-1H-imidazol-2-yl)-5-phenyl-4-(2-(pyrrolidin-1-yl)ethoxy)pyrrolo[2,1-f][1,2,4]triazine] | 0 (0% inhibition) | A (A = 1-25% inhibition) | 0 (0 = 0% inhibition) | 0 (0 = 0% inhibition) | 0 (0 = 0% inhibition) | 0 | 0 (0 = 0% inhibition) | A (A = 1-25% inhibition) | 0 | 0 (0 = 0% inhibition) | 0 (0 = 0% inhibition)
CO[C@H]1CC[C@@H](Nc2nc(-c3nccn3C)nn3cc(-c4ccn(C(C)C)n4)c(C(C)C)c23)C1 (racemic) [Compound 36, rac 5-Isopropyl-6-(1-isopropyl-1H-pyrazol-3-yl)-N-((1R,3S)-3-methoxycyclopentyl)-2-(1-methyl-1H-imidazol-2-yl)pyrrolo[2,1-f][1,2,4]triazin-4-amine] | C (50-84% inhibition) | A (A = 1-25% inhibition) | A (A = 1-25% inhibition) | A (A = 1-25% inhibition) | A (A = 1-25% inhibition) | 1 to 25 | A (A = 1-25% inhibition) | 0 (0 = 0% inhibition) | 0 | 0 (0 = 0% inhibition) | A (A = 1-25% inhibition)
Cc1c(-c2ccn(C(C)C)n2)cn2nc(-c3nccn3C)nc(Nc3ccn(C(C)C)n3)c12 [Compound 72, N,6-bis(1-Isopropyl-1H-pyrazol-3-yl)-5-methyl-2-(1-methyl-1H-imidazol-2-yl)pyrrolo[2,1-f][1,2,4]triazin-4-amine] | D* (85-100% activation) | D (D = 76-100% inhibition) | D (D = 76-100% inhibition) | D (D = 76-100% inhibition) | C (C = 50-75% inhibition) | 76 to 100 | C (C = 50-75% inhibition) | C (C = 50-75% inhibition) | 76 to 100 | C (C = 50-75% inhibition) | C (C = 50-75% inhibition)
Cc1c(-c2ccn(C(C)C)n2)cn2nc(-c3nccn3C)nc(Nc3nc(C4CC4)no3)c12 [Compound 70, 3-Cyclopropyl-N-(6-(1-isopropyl-1H-pyrazol-3-yl)-5-methyl-2-(1-methyl-1H-imidazol-2-yl)pyrrolo[2,1-f][1,2,4]triazin-4-yl)-1,2,4-oxadiazol-5-amine] | B* (26-49% activation) | A (A = 1-25% inhibition) | A (A = 1-25% inhibition) | 0 (0 = 0% inhibition) | A (A = 1-25% inhibition) | 1 to 25 | 0 (0 = 0% inhibition) | A (A = 1-25% inhibition) | 1 to 25 | 0 (0 = 0% inhibition) | A (A = 1-25% inhibition)
